Tests used:
[1] = test system: barnyard grass; assay: Test Example 3: herbicidal effect by foliage application, Wagner pot (Table 18, symbol H); assay type: in vivo, barnyard grass (Echinochloa crus-galli); details: amount of applied herbicide 320 g/ha
How it was run: (§1)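 Plants were sown in alluvial soil held under 0.1–0.5 cm standing water and grown 14 days in a greenhouse at 25–30 °C. An emulsifiable formulation, water-diluted to the set dose, was then sprayed onto the foliage, and effects were scored three weeks later using previously defined criteria.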

[2] = test system: Chinese sprangletop; assay: Test Example 3: herbicidal effect by foliage application, Wagner pot (Table 18, symbol D); assay type: in vivo, chinese sprangletop (Leptochloa chinensis); details: amount of applied herbicide 320 g/ha
How it was run: as §1

[3] = test system: rice flat sedge; assay: Test Example 3: herbicidal effect by foliage application, Wagner pot (Table 18, symbol E); assay type: in vivo, rice flat sedge (Cyperus iria); details: amount of applied herbicide 320 g/ha
How it was run: as §1

[4] = test system: southern crabgrass; assay: Test Example 4: herbicidal effect by soil treatment (Table 19, symbol F); assay type: in vivo, southern crabgrass (Digitaria ciliaris); details: amount of applied herbicide 320 g/ha
How it was run: (§2)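 Herbicidal effect was rated 3 weeks after treatment, using the scoring criteria of an earlier test. The compound, formulated as an emulsion and diluted in water to a set herbicide amount, had been sprayed uniformly on soil over freshly sown seeds. Growth took place in a greenhouse at 25° C. to 30° C.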

[5] = test system: green foxtail; assay: Test Example 4: herbicidal effect by soil treatment (Table 19, symbol G); assay type: in vivo, green foxtail (Setaria viridis); details: amount of applied herbicide 320 g/ha
How it was run: as §2

[6] = test system: barnyard grass; assay: Test Example 4: herbicidal effect by soil treatment (Table 19, symbol H); assay type: in vivo, barnyard grass (Echinochloa crus-galli); details: amount of applied herbicide 320 g/ha
How it was run: as §2

[7] = test system: wild oat; assay: Test Example 4: herbicidal effect by soil treatment (Table 19, symbol I); assay type: in vivo, wild oat (Avena fatua); details: amount of applied herbicide 320 g/ha
How it was run: as §2

[8] = test system: blackgrass; assay: Test Example 4: herbicidal effect by soil treatment (Table 19, symbol J); assay type: in vivo, blackgrass (Alopecurus myosuroides); details: amount of applied herbicide 320 g/ha
How it was run: as §2

[9] = test system: Italian ryegrass; assay: Test Example 4: herbicidal effect by soil treatment (Table 19, symbol K); assay type: in vivo, Italian ryegrass (Lolium multiflorum); details: amount of applied herbicide 320 g/ha
How it was run: as §2

[10] = test system: windgrass; assay: Test Example 4: herbicidal effect by soil treatment (Table 19, symbol L); assay type: in vivo, windgrass (Apera spica-venti); details: amount of applied herbicide 320 g/ha
How it was run: as §2

[11] = test system: velvetleaf; assay: Test Example 4: herbicidal effect by soil treatment (Table 19, symbol M); assay type: in vivo, velvetleaf (Abutilon theophrasti); details: amount of applied herbicide 320 g/ha
How it was run: as §2

[12] = test system: redroot pigweed; assay: Test Example 4: herbicidal effect by soil treatment (Table 19, symbol N); assay type: in vivo, redroot pigweed (Amaranthus retroflexus); details: amount of applied herbicide 320 g/ha
How it was run: as §2

[13] = test system: lambsquarters; assay: Test Example 4: herbicidal effect by soil treatment (Table 19, symbol O); assay type: in vivo, lambsquarters (Chenopodium album); details: amount of applied herbicide 320 g/ha
How it was run: as §2

[14] = test system: chickweed; assay: Test Example 4: herbicidal effect by soil treatment (Table 19, symbol P); assay type: in vivo, common chickweed (Stellaria media); details: amount of applied herbicide 320 g/ha
How it was run: as §2

[15] = test system: persian speedwell; assay: Test Example 4: herbicidal effect by soil treatment (Table 19, symbol R); assay type: in vivo, Persian speedwell (Veronica persica); details: amount of applied herbicide 320 g/ha
How it was run: as §2

[16] = test system: southern crabgrass; assay: Test Example 5: herbicidal effect by foliage application, plastic box (Table 20, symbol F); assay type: in vivo, southern crabgrass (Digitaria ciliaris); details: foliage application
How it was run: (§3)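 Foliar spray test: emulsion formulation diluted in water to a set application rate, sprayed onto 14-day-old plants raised in diluvial soil at 25° C to 30° C under glass. Both herbicidal effect and crop effect rated visually three weeks later.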

[17] = test system: green foxtail; assay: Test Example 5: herbicidal effect by foliage application, plastic box (Table 20, symbol G); assay type: in vivo, green foxtail (Setaria viridis); details: foliage application
How it was run: as §3

[18] = test system: barnyard grass; assay: Test Example 5: herbicidal effect by foliage application, plastic box (Table 20, symbol H); assay type: in vivo, barnyard grass (Echinochloa crus-galli); details: foliage application
How it was run: as §3

[19] = test system: wild oat; assay: Test Example 5: herbicidal effect by foliage application, plastic box (Table 20, symbol I); assay type: in vivo, wild oat (Avena fatua); details: foliage application
How it was run: as §3

[20] = test system: blackgrass; assay: Test Example 5: herbicidal effect by foliage application, plastic box (Table 20, symbol J); assay type: in vivo, blackgrass (Alopecurus myosuroides); details: foliage application
How it was run: as §3

[21] = test system: Italian ryegrass; assay: Test Example 5: herbicidal effect by foliage application, plastic box (Table 20, symbol K); assay type: in vivo, Italian ryegrass (Lolium multiflorum); details: foliage application
How it was run: as §3

[22] = test system: windgrass; assay: Test Example 5: herbicidal effect by foliage application, plastic box (Table 20, symbol L); assay type: in vivo, windgrass (Apera spica-venti); details: foliage application
How it was run: as §3

[23] = test system: velvetleaf; assay: Test Example 5: herbicidal effect by foliage application, plastic box (Table 20, symbol M); assay type: in vivo, velvetleaf (Abutilon theophrasti); details: foliage application
How it was run: as §3

[24] = test system: redroot pigweed; assay: Test Example 5: herbicidal effect by foliage application, plastic box (Table 20, symbol N); assay type: in vivo, redroot pigweed (Amaranthus retroflexus); details: foliage application
How it was run: as §3

[25] = test system: lambsquarters; assay: Test Example 5: herbicidal effect by foliage application, plastic box (Table 20, symbol O); assay type: in vivo, lambsquarters (Chenopodium album); details: foliage application
How it was run: as §3

[26] = test system: chickweed; assay: Test Example 5: herbicidal effect by foliage application, plastic box (Table 20, symbol P); assay type: in vivo, common chickweed (Stellaria media); details: foliage application
How it was run: as §3

[27] = test system: persian speedwell; assay: Test Example 5: herbicidal effect by foliage application, plastic box (Table 20, symbol R); assay type: in vivo, Persian speedwell (Veronica persica); details: foliage application
How it was run: as §3

[28] = AAH 320 g/ha, evaluated three weeks after application
[29] = 320 g/ha, three weeks after application

Row | SMILES | herbicidal effect on H: barnyard grass [1] | herbicidal effect on D: Chinese sprangletop [2] | herbicidal effect on E: rice flat sedge [3] | herbicidal effect, F: southern crabgrass [4] | herbicidal effect, G: green foxtail [5] | herbicidal effect, H: barnyard grass [6] | herbicidal effect, I: wild oat [7] | herbicidal effect, J: blackgrass [8] | herbicidal effect, K: Italian ryegrass [9] | herbicidal effect, L: windgrass [10] | herbicidal effect, M: velvetleaf [11] | herbicidal effect, N: redroot pigweed [12] | herbicidal effect, O: lambsquarters [13] | herbicidal effect, P: chickweed [14] | herbicidal effect, R: persian speedwell [15] | other results
1 | CCn1nc(C)c(O)c(-c2c(-c3ccc(C(F)(F)F)cc3)sc3ccc(F)cc23)c1=O [2-402] | 5 (Herbicidal rate of 90% or more (almost completely withered)) | 3 (Herbicidal rate of 40% or more and less than 70%) | 3 (Herbicidal rate of 40% or more and less than 70%) | 2 (Herbicidal rate of 20% or more and less than 40%) | 0 (Herbicidal rate of 5% or less (almost no effect)) | 0 (Herbicidal rate of 5% or less (almost no effect)) | 0 (Herbicidal rate of 5% or less (almost no effect)) | 0 (Herbicidal rate of 5% or less (almost no effect)) | 2 (Herbicidal rate of 20% or more and less than 40%) | 2 (Herbicidal rate of 20% or more and less than 40%) | 0 (Herbicidal rate of 5% or less (almost no effect)) | 1 (Herbicidal rate of 5% or more and less than 20%) | 1 (Herbicidal rate of 5% or more and less than 20%) | 4 (Herbicidal rate of 70% or more and less than 90%) | 5 (Herbicidal rate of 90% or more (almost completely withered)) | F: southern crabgrass, herbicidal effect (criteria 0-5) [16, 28]: 4 (Herbicidal rate of 70% or more and less than 90%); G: green foxtail, herbicidal effect (criteria 0-5) [17, 28]: 3 (Herbicidal rate of 40% or more and less than 70%); H: barnyard grass, herbicidal effect (criteria 0-5) [18, 28]: 5 (Herbicidal rate of 90% or more (almost completely withered)); I: wild oat, herbicidal effect (criteria 0-5) [19, 28]: 4 (Herbicidal rate of 70% or more and less than 90%); J: blackgrass, herbicidal effect (criteria 0-5) [20, 28]: 5 (Herbicidal rate of 90% or more (almost completely withered)); K: Italian ryegrass, herbicidal effect (criteria 0-5) [21, 28]: 5 (Herbicidal rate of 90% or more (almost completely withered)); L: windgrass, herbicidal effect (criteria 0-5) [22, 28]: 5 (Herbicidal rate of 90% or more (almost completely withered)); M: velvetleaf, herbicidal effect (criteria 0-5) [23, 28]: 4 (Herbicidal rate of 70% or more and less than 90%); N: redroot pigweed, herbicidal effect (criteria 0-5) [24, 28]: 4 (Herbicidal rate of 70% or more and less than 90%); O: lambsquarters, herbicidal effect (criteria 0-5) [25, 28]: 4 (Herbicidal rate of 70% or more and less than 90%); P: chickweed, herbicidal effect (criteria 0-5) [26, 28]: 5 (Herbicidal rate of 90% or more (almost completely withered)); R: persian speedwell, herbicidal effect (criteria 0-5) [27, 28]: 5 (Herbicidal rate of 90% or more (almost completely withered))
2 | CCc1nn(C)c(=O)c(-c2c(-c3ccc(OC(F)(F)F)cc3)sc3ccc(F)cc23)c1O [2-412] | 4 (Herbicidal rate of 70% or more and less than 90%) | 0 (Herbicidal rate of 5% or less (almost no effect)) | 4 (Herbicidal rate of 70% or more and less than 90%) | 0 (Herbicidal rate of 5% or less (almost no effect)) | 0 (Herbicidal rate of 5% or less (almost no effect)) | 0 (Herbicidal rate of 5% or less (almost no effect)) | 0 (Herbicidal rate of 5% or less (almost no effect)) | 0 (Herbicidal rate of 5% or less (almost no effect)) | 0 (Herbicidal rate of 5% or less (almost no effect)) | 0 (Herbicidal rate of 5% or less (almost no effect)) | 0 (Herbicidal rate of 5% or less (almost no effect)) | 2 (Herbicidal rate of 20% or more and less than 40%) | 1 (Herbicidal rate of 5% or more and less than 20%) | 0 (Herbicidal rate of 5% or less (almost no effect)) | 3 (Herbicidal rate of 40% or more and less than 70%) | F: southern crabgrass, herbicidal effect grade [16, 29]: 3 (Herbicidal rate of 40% or more and less than 70%); G: green foxtail, herbicidal effect grade [17, 29]: 4 (Herbicidal rate of 70% or more and less than 90%); H: barnyard grass, herbicidal effect grade [18, 29]: 4 (Herbicidal rate of 70% or more and less than 90%); I: wild oat, herbicidal effect grade [19, 29]: 0 (Herbicidal rate of 5% or less (almost no effect)); J: blackgrass, herbicidal effect grade [20, 29]: 0 (Herbicidal rate of 5% or less (almost no effect)); K: Italian ryegrass, herbicidal effect grade [21, 29]: 3 (Herbicidal rate of 40% or more and less than 70%); L: windgrass, herbicidal effect grade [22, 29]: 1 (Herbicidal rate of 5% or more and less than 20%); M: velvetleaf, herbicidal effect grade [23, 29]: 3 (Herbicidal rate of 40% or more and less than 70%); N: redroot pigweed, herbicidal effect grade [24, 29]: 5 (Herbicidal rate of 90% or more (almost completely withered)); O: lambsquarters, herbicidal effect grade [25, 29]: 5 (Herbicidal rate of 90% or more (almost completely withered)); P: chickweed, herbicidal effect grade [26, 29]: 5 (Herbicidal rate of 90% or more (almost completely withered)); R: persian speedwell, herbicidal effect grade [27, 29]: 5 (Herbicidal rate of 90% or more (almost completely withered))

From patent publication US20230085307A1, “PYRIDAZINONE COMPOUND AND HERBICIDE” (NISSAN CHEMICAL CORPORATION, priority 2019, published 2023)
